Test results as given in patent US12049439B2 (OrsoBio, Inc., priority 2018, dated 2024).

Test system: PC-3 cells
Experiment: PC-3 Oxygen Rate Consumption (OCR) Assay
Type: cell-based
Details: Homo sapiens, 0.05 h, medium with 2% FBS, OCR at 3-min post-injection normalized to % increase over DMSO-treated cells, concentration for half-maximal OCR increase, read-out: EC50-PC3-OCR-FBS-3min
Summary of the method: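 PC-3 cells seeded a day before, equilibrated 1 h in XF medium with 10 mM glucose, 1 mM pyruvate, 2% FBS, non-CO2 at 37 °C. Compound injected after basal OCR reads; OCR at 3 min post-injection normalized as % increase over DMSO, EC50 = half-maximal increase; six replicates.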

Compound | EC50
CN(C)S(=O)(=O)Nc1cc(F)c(F)cc1C(=O)NC12CCC(C#N)(CC1)CC2 [Example 236, N-(4-cyanobicyclo[2.2.2]octan-1-yl)-2-((N,N-dimethylsulfamoyl)amino)-4,5-difluorobenzamide] | 25.2 µM
O=C(NC12CCC(C(F)(F)F)(CC1)CC2)c1cc(SC(F)(F)F)ccc1NS(=O)(=O)N1CCS(=O)(=O)CC1 [Example 237, 2-((1,1-dioxidothiomorpholine)-4-sulfonamido)-N-(4-(trifluoromethyl)bicyclo[2.2.2]octan-1-yl)-5-((trifluoromethyl)thio)benzamide] | 7.73 µM
O=C(NC12CCC(C(F)(F)F)(CC1)CC2)c1ccc(F)cc1NS(=O)(=O)C1CCS(=O)(=O)CC1 [Example 238, 2-((1,1-dioxidotetrahydro-2H-thiopyran)-4-sulfonamido)-4-fluoro-N-(4-(trifluoromethyl)bicyclo[2.2.2]octan-1-yl)benzamide] | 29.7 µM
O=C(NC12CCC(C(F)(F)F)(CC1)CC2)c1cc(C(F)(F)F)ccc1NS(=O)(=O)C1CCS(=O)(=O)CC1 [Example 239, 2-((1,1-dioxidotetrahydro-2H-thiopyran)-4-sulfonamido)-5-(trifluoromethyl)-N-(4-(trifluoromethyl)bicyclo[2.2.2]octan-1-yl)benzamide] | 7.73 µM
O=C(NC12CCC(C(F)(F)F)(CC1)CC2)c1ccc(OC(F)(F)F)cc1NS(=O)(=O)C1CCS(=O)(=O)CC1 [Example 240, 2-((1,1-dioxidotetrahydro-2H-thiopyran)-4-sulfonamido)-4-(trifluoromethoxy)-N-(4-(trifluoromethyl)bicyclo[2.2.2]octan-1-yl)benzamide] | 3.01 µM
O=C(NC12CCC(C(F)(F)F)(CC1)CC2)c1ccc(Cl)cc1NS(=O)(=O)C1CCS(=O)(=O)CC1 [Example 241, 4-chloro-2-((1,1-dioxidotetrahydro-2H-thiopyran)-4-sulfonamido)-N-(4-(trifluoromethyl)bicyclo[2.2.2]octan-1-yl)benzamide] | 6.38 µM
N#CC1(S(=O)(=O)Nc2ccc(F)cc2C(=O)NC23CC(C(F)(F)F)(C2)C3)CC1 [Example 242, 2-((1-cyanocyclopropane)-1-sulfonamido)-5-fluoro-N-(3-(trifluoromethyl)bicyclo[1.1.1]pentan-1-yl)benzamide] | 4.34 µM
CS(=O)(=O)Nc1ccc(SC(F)(F)F)cc1C(=O)NC12CC(C#N)(C1)C2 [Example 243, N-(3-cyanobicyclo[1.1.1]pentan-1-yl)-2-(methylsulfonamido)-5-((trifluoromethyl)thio)benzamide] | 6.14 µM
CN(C)S(=O)(=O)Nc1ccc(C(F)(F)F)cc1C(=O)NC12CC(C#N)(C1)C2 [Example 244, N-(3-cyanobicyclo[1.1.1]pentan-1-yl)-2-((N,N-dimethylsulfamoyl)amino)-5-(trifluoromethyl)benzamide] | 7.65 µM
O=C(NC12CC(C(F)(F)F)(C1)C2)c1ccc(OC(F)(F)F)cc1NS(=O)(=O)N1CCS(=O)(=O)CC1 [Example 245, 2-((1,1-dioxidothiomorpholine)-4-sulfonamido)-4-(trifluoromethoxy)-N-(3-(trifluoromethyl)bicyclo[1.1.1]pentan-1-yl)benzamide] | 3.84 µM
CS(=O)(=O)N1C2CCC1CN(S(=O)(=O)Nc1ccc(C(F)(F)F)cc1C(=O)NC13CCC(C#N)(CC1)CC3)C2 [Example 246, N-(4-cyanobicyclo[2.2.2]octan-1-yl)-2-(((1R,5S)-8-(methylsulfonyl)-3,8-diazabicyclo[3.2.1]octane)-3-sulfonamido)-5-(trifluoromethyl)benzamide] | 14.5 µM
N#Cc1ccc(C(=O)NC23CC(C(F)(F)F)(C2)C3)c(NS(=O)(=O)N2CCC2)c1 [Example 247, 2-(azetidine-1-sulfonamido)-4-cyano-N-(3-(trifluoromethyl)bicyclo[1.1.1]pentan-1-yl)benzamide] | 4.79 µM
CS(=O)(=O)CCS(=O)(=O)Nc1cc(OC(F)(F)F)ccc1C(=O)NC12CCC(C(F)(F)F)(CC1)CC2 [Example 248, 2-((2-(methylsulfonyl)ethyl)sulfonamido)-4-(trifluoromethoxy)-N-(4-(trifluoromethyl)bicyclo[2.2.2]octan-1-yl)benzamide] | 5.7 µM
